Data taken from patent publication US7850984B2, “Protection of the female reproductive system from natural and artificial insults” (The General Hospital Corporation, priority 2000, dated 2010).

Test system: C57BL/6J female mice
Assay: Mating trials of irradiated female mice
Format: in vivo, mouse
Experimental: Eight-week old C57BL/6J female mice (Jackson Laboratories) are anesthetized by intraperitoneal injection of Avertin (30 μl of a 1.25% stock solution per gram of body weight; Aldrich Chemical Co.), and dorsal incisions are made to retrieve and expose the ovaries. Five μl of vehicle (5% polyethylene glycol, 2.5% ethanol, and 0.8% Tween-80, or PET) or of a stock of 2 mM S1P (BIOMOL) prepared in PET are injected into the bursa surrounding each ovary (see Example 10). Based on an estimated bursal cavity volume of 50 μl, the final concentration of S1P following this procedure is 200 μM. The ovaries are returned to the peritoneal cavity, the incisions are sutured, and the mice are allowed to recover for a 2-h pre-treatment period. Mice are then given a single dose of 0.05 or 0.1 Gy of abdominally directed ionizing radiation, using a cesium^137 source (Shepherd Mar-I, Model 68) at a dose rate of 0.7 Gy min^−1.
To evaluate whether the acute protection of oocytes by S1P also results in long-term preservation of ovarian function and fertility, mating trials are initiated 2 months after irradiation. For these studies, 8-week old C57BL/6J female mice are given intrabursal injections of vehicle or a maximally effective dose of S1P (0.2 mM final concentration in the bursal cavity) two hours before exposure to 0.1 Gy of ionizing radiation, delivered as a single dose. […] Females, irradiated without or with S1P pre-treatment, are then mated with non-irradiated C57BL/6J males beginning 2 months post-irradiation. The F0 females are caged with adult (2-4 month old) wild type C57BL/6J males for 15 d. As a control to assure the fertility of the males, each is mated to a female of proven fertility. After delivery, pups of first time mothers are fostered while pups of subsequent litters are maintained with their natural mothers. […] The F0 female mice are bred again with a new wild type male two weeks after the pups are weaned, and the process is repeated for a total of 4 matings.
It is next examined whether preservation of ovarian function and fertility might result in propagation of genomic damage to the F2 progeny. To generate F2 offspring, F1 males and females are each bred at 2 months of age with adult (2-4 month old) wild type C57BL/6J females or males, respectively (see FIG. 6 for details).

## CCCCCCCCCCCCC/C=C/[C@@H](O)[C@@H](N)COP(=O)(O)O [S1P, sphingosine-1-phosphate]
200 μM S1P before 0.1 Gy, fourth mating trial, P<0.001 vs. vehicle-treated irradiated females
  irradiated females remaining fertile after one year: 75%
200 μM S1P before 0.1 Gy, mating 2 months post-irradiation, n=8
  irradiated females delivering litters, first mating trial: all
S1P-treated irradiated group (0.1 Gy), average
  litter size: 6.1±0.4 pups per mating
Mothers treated or not with S1P
  frequency of rejection of pups by irradiated mothers: no increase in the frequency of rejection of pups
Second generation
  phenotypic or behavioral abnormalities in F2 offspring: no gross phenotypic or behavioral abnormalities
Up to 18 months of age
  phenotypic or behavioral abnormalities in F1 offspring: No phenotypic or behavioral abnormalities
